Values quoted from earlier work, collected in patent US20170119788A1, “METHODS AND COMPOSITIONS FOR DERMATOLOGICAL USE COMPRISING FLUTICASONE AND MOMETASONE AND BIOPOLYMERS” (APEX LABORATORIES PRIVATE LIMITED, priority 2015, published 2017).
Where two headings read alike, the source gives them in different places.

Key:
[1] = biological target: T1, human glucocorticoid receptors (Homo sapiens, UniProt P04150); settings: in vitro, result in words
T1 sequence (P04150 1-777): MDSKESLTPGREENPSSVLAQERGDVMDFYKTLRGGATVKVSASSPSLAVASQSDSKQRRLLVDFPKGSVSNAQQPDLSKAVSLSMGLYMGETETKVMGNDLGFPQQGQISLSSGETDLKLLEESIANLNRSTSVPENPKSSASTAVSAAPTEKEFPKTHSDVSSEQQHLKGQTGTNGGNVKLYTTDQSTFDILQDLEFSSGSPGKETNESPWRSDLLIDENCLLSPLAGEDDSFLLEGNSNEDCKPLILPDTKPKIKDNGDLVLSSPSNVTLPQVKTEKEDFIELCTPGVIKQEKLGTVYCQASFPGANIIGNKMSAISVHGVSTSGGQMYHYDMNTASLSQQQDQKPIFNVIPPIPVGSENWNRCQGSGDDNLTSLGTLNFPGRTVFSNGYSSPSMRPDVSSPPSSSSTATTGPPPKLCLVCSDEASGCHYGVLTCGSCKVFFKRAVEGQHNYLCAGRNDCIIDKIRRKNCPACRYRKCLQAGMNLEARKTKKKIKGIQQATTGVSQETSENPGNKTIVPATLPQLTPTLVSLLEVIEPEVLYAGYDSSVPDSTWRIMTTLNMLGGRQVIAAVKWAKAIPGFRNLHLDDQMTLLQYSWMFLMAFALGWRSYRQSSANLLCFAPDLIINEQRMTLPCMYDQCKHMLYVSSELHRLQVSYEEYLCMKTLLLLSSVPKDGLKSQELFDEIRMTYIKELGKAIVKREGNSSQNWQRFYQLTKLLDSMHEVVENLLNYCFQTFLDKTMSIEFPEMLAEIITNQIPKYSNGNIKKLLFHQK

[2] = not given; remark: listed apart in the source
human plasma proteins = settings: average
erythrocytes = settings: result in words
human transcortin = biological target: T2, human transcortin (Homo sapiens, UniProt P08185); settings: result in words
T2 sequence (P08185 23-405): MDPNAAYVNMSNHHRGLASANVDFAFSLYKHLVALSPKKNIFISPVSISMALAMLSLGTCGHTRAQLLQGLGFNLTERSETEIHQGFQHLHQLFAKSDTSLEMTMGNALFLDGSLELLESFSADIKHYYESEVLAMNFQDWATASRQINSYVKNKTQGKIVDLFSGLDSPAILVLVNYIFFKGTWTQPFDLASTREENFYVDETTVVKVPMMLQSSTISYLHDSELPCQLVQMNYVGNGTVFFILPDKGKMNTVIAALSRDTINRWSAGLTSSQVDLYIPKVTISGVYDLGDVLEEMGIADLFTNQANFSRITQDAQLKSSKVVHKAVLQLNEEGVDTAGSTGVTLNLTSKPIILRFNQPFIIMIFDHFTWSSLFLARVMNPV

[3] = not given; remark: listed apart in the source
[4] = not given; remark: listed apart in the source

solubility in dimethyl sulfoxide and dimethylformamide (dimethyl sulfoxide and dimethylformamide) | solubility in methanol and 95% ethanol (methanol and 95% ethanol) | solubility in water (water) | affinity and agonist activity at human glucocorticoid receptors [1] | apparent volume of distribution, average [2] [L/kg] | terminal half-life, average [2] [h] | percentage bound to human plasma proteins (human plasma proteins) [%] | binding to erythrocytes (erythrocytes) | binding to human transcortin (human transcortin) | solubility in ethyl alcohol ([3]; ethyl alcohol) | solubility in octanol ([3]; octanol) | solubility in water ([3]; water) | bioavailability of an inhaled dose ([4]; compared with IV administration) | excretion in the feces ([4]; up to 7 days) [%] | excretion in the urine ([4]; up to 7 days) [%] | SMILES
freely soluble | slightly soluble | practically insoluble | strong affinity and agonist activity | 4.2 | 7.2 | 91 | weakly and reversibly bound | not significantly bound |  |  |  |  |  |  | CCC(=O)O[C@]1(C(=O)SCF)[C@H](C)C[C@H]2[C@@H]3C[C@H](F)C4=CC(=O)C=C[C@]4(C)[C@@]3(F)[C@@H](O)C[C@@]21C [Fluticasone propionate, S-(fluoromethyl)6α,9-difluoro-11β-17-dihydroxy-16α-methyl-3-oxoandrosta-1,4-diene-17β-carbothioate, 17-propionate]
 |  |  |  |  |  |  |  |  | moderately soluble | slightly soluble | practically insoluble | less than 1% | 74 | 8 | C[C@@H]1C[C@H]2[C@@H]3CCC4=CC(=O)C=C[C@]4(C)[C@@]3(Cl)[C@@H](O)C[C@]2(C)[C@@]1(OC(=O)c1ccco1)C(=O)CCl [Mometasone Furoate, 9α, 21-dichloro-11β, 17-dihydroxy-16α-methylpregna-1,4-diene-3, 20-dione 17-(2-Furoate)]
